Measured values published in patent US11229635B2, “Method of treating fibrosis” (BCN Biosciences L.L.C., priority 2016, dated 2022).

Key:
[1] = system: bone marrow hematopoietic stem cells (HSCs); assay: Total body irradiation survival (hematopoietic suppression); assay type: in vivo, C3H/HeN mice; conditions: 7.75 Gy TBI, 30 day; male 50 mg/kg, female 25 mg/kg C3H/HeN mice
Procedure: FIG. 8A-C: (A) Kaplan Meier Plot of Male C3H/HeN mice 7.75Gy 30 Day TBI (n=30) 50 mg/kg BCN057. (B). Kaplan Meier Plot of Female C3H/HeN mice 7.75Gy 30 Day TBI (n=10) 25 mg/kg BCN057. (C) Cytokine Profile in Plasma Male C3H/HeN mice 7.75Gy TBI Day 8 receiving BCN057.
7.75 Gy radiation is used to ablate bone marrow hematopoietic stem cells (HSCs) in these strains of mice. […] Lethality from bone marrow suppression occurs in the 14-25 day region due to the life cycle of approximately 2 weeks for RBC and inability to replace them without HSCs
7.73 Gy radiation is used to ablate bone marrow HSCs in the C3H strain of mice.

plasma cytokines = assay: Mouse Cytokine panel ELISA Array of plasma after irradiation; assay type: in vivo; conditions: irradiated mice (7 G), 200 mg/kg SC Day 1 to 7, blood Day 8
Procedure: Mice were irradiated on Day 0. Animals were dosed with drug for 7 consecutive days (Day 1 to 7) at 200 mg/kg SC, with terminal blood collection on Day 8. Plasma from 3 mice was pooled for each condition Y axis represents relative absorbance units.
The plasma was tested with the Mouse Cytokine panel ELISA Array panel—by SIGNOSIS™

hematopoietic system = assay: Recovery of the hematopoietic system following 6 Gy irradiation; assay type: in vivo; conditions: C3H mice, s.c. at 24, 48, 72, 96, and 120 hrs
Text: Recovery of the hematopoietic system following 6 Gy irradiation of C3H mice (n=4) with BCN057 treatment (s.c.) at 24, 48, 72, 96, and 120 hrs. RBC- red blood cells (M/uL), HB-hemoglobin (g/dL), and HCT-hematocrit (%). B: recovery of the hematopoietic system following 6 Gy irradiation of C3H mice (n=4) with BCN057 treatment (s.c.) at 24, 48, 72, 96, and 120 hrs. WBC-white blood cells, NE-neutrophils, LY-lymphocytes. C: platelet (PLT) recovery following 6 Gy irradiation of C3H mice (n=4) with BCN057 treatment (s.c.) at 24,48,72,96, and 120 hrs; p<0.05 with a 1-tail, Student t-test.

[2] = system: cancer cell lines (leukemia, breast, CNS, colon, melanoma, non-small cell lung, ovarian, prostate, renal); assay: NCI cancer cell line growth screen (percent growth over 48 h, sulforhodamine B); assay type: cell-based
blood platelets = assay: Platelet count in normal mice; assay type: in vivo, mouse; conditions: eight days oral or subcutaneous, 75-800 mg/kg/day
Procedure: Normal mice were treated with BCN057 for eight days by oral administration or subcutaneous injection. Dose groups included 75 mg/kg/day, 200 mg/kg/day, 400 mg/kg/day, 500 mg/kg/day, and 800 mg/kg/day

[3] = system: radiation dermatitis (erythema, edema); assay: Draize scoring of dermal radiation sites, dermal dosing 10 mg/mL Day 0 to 6; assay type: in vivo; conditions: Avg of Days 1-6 and 8
[4] = Solubility of BCN057 in aqueous formulations; assay type: physicochemical
Procedure: Several formulations were developed to solubilize BCN057 in aqueous solution at physiologically compatible pHs. These include 100 mM methanesulfonic acid/10% povidone (PVP); 100 mM MSA/2% benzyl alcohol/2% N-methylpyrrolidone (NMP); and, 100 mM MSA/10% ethanol/1% Poloxamer 188.
Several suitable formulations were developed for intravenous, subcutaneous and oral delivery of therapeutic levels of BCN057. These include 30 wt % Captisol (SBE-beta-CD) and 100 mM MSA at pH 4.1 (adjusted with 1.0 N NaOH).

[5] = system: canonical Wnt-β catenin signaling; assay: TCF/LEF luciferase reporter assay in HEK293 cells; assay type: cell-based; conditions: 10 mM, 24 h, positive control
Procedure: LiCl (10 mM) treatment was used as positive control for luciferase activity. Luciferase activity was determined after 24 h using a Dual-Luciferase® Reporter Assay System (Promega) as per manufacturer's protocol. HEK293 cells containing a FOPFlash construct were used as a negative control.

| SMILES | lethality from bone marrow suppression [1] | plasma cytokine profile (plasma cytokines) | hematopoietic recovery (RBC, HB, HCT, WBC, NE, LY, PLT) (hematopoietic system) | cancer cell growth vs control (no drug) ([2]; 10 uM, 48 h, Leukemia, prostate and kidney cancer) | cancer cell growth vs untreated control ([2]; breast cancer, lung carcinoma, prostate, CNS, melanoma, ovarian, renal and colon cancer lines (FIG. 2)) | platelet production (blood platelets) | Average Draize score Edema [3] | Average Draize score Edema Site 2 [3] | Average Draize score Edema Site 3 [3] | Average Draize score Edema Site 4 [3] | Average Draize score Edema Site 5 [3] | Average Draize score Edema Site 6 [3] | Average Draize score Erythema Site 2 [3] | Average Draize score Erythema Site 3 [3] | Average Draize score Erythema Site 4 [3] | Average Draize score Erythema Site 5 [3] | Average Draize score Erythema Site 6 [3] | solubility ([4]; 30 wt % Captisol (SBE-beta-CD) and 100 mM MSA, up to pH 4.1) | solubility ([4]; addition of 100 mM lactic acid to the MSA mixtures) | luciferase activity [5] |
| --- | --- | --- | --- | --- | --- | --- | --- | --- | --- | --- | --- | --- | --- | --- | --- | --- | --- | --- | --- | --- |
| COc1ccc2cc(-c3nc4ccc(C)cn4c3NCc3ccco3)c(=O)[nH]c2c1 [BCN057, 3-(3((furan-2-ylmethyl)ammo)-6-methylimidazo[1,2-α]pyridine-2-yl)-6-methoxyquinolin-2(1H)-one] | sufficient to prevent lethality from bone marrow suppression | restores the cytokine profile to similar to that of the control | evidence of improving hematopoietic recovery | inhibitory | susceptible | induces platelet production in a dose dependent fashion | 0 | 0 | 0.5714 | 0 | 0.4286 | 0 | 0.1429 | 1.286 | 0.1429 | 1.429 | 0.4286 | excellent solubility | improved solubility | – |
| [Cl-].[Li+] [LiCl, reference compound] | – | – | – | – | – | – | – | – | – | – | – | – | – | – | – | – | – | – | – | significantly increased luciferase activity |
